Patent US10604554B2, “Double-acylated GLP-1 derivatives” (Novo Nordisk A/S, priority 2012, dated 2020)
Where two headings read alike, the source gives them in different places. Numbered stars: 1 amine (or outer) side, 2 acyl side, 3 side chain; on linkers, the order of the positions; unused ones are H or OH. Square brackets hold non-standard residues; d marks the D form. Side chains are listed from the residue outwards. Peptide text beside a SMILES is read from it. * marks the point of attachment. C18 diacid = O=C(O)CCCCCCCCCCCCCCCCC(=O)*; γGlu = O=C(O)[C@H](CCC(=O)[*:2])N[*:1]; εLys = N[C@@H](CCCCN[*:1])C(=O)[*:2]; AEEA = NCCOCCOCC(=O)O; Aib = CC(C)(N)C(=O)O

How the values were obtained:
[1] = Pharmacokinetic (PK) study in rat; details: male, Sprague Dawley, in vivo, iv, 6 nmol/kg
human GLP-1 receptor = target: T1, human GLP-1 receptor (Homo sapiens, UniProt P43220); test: In vitro potency (CRE luciferase; whole cells); format: cell-based; parameters: EC50/pM (ratio 1% HSA/0% HSA): unit not given here; details: for EC50: BHK cells; for EC50/pM (ratio 1% HSA/0% HSA): ratio of EC50 at 1% HSA to EC50 at 0% HSA
T1 construct: expressed in transfected cells; host or cells: BHK cells, clone FCW467-12A/KZ10-1 (parent line BHKTS13), further transfected with CRE luciferase
T1 sequence (P43220 24-463): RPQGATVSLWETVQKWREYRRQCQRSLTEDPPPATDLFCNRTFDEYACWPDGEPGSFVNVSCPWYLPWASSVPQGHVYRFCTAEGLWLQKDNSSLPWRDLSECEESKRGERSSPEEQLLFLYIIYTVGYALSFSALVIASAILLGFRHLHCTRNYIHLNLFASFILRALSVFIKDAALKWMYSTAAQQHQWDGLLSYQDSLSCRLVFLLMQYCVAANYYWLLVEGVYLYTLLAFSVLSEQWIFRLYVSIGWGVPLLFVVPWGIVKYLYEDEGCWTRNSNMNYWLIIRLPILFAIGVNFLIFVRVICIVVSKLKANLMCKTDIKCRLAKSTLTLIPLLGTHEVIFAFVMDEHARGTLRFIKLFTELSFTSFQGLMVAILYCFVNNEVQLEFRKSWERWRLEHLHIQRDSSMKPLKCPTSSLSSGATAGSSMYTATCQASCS
Summary of the method: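 Stably transfected BHK cells carrying human GLP-1R and a CRE–firefly luciferase reporter, 5×10^3 cells/well in assay medium, run with 0% or 1% HSA in assay buffer.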

[2] = In vitro potency (CRE luciferase) EC50 (0% HSA), 0% HSA
[3] = In vitro potency (CRE luciferase) EC50 (1% HSA), 1% HSA

SMILES | half-life [1] [h] | EC50 (human GLP-1 receptor; [2]) [nM] | EC50 (human GLP-1 receptor; [3]) [nM] | EC50/pM (ratio 1% HSA/0% HSA) (human GLP-1 receptor) | EC50 (human GLP-1 receptor; 0% HSA, read-out: In vitro potency (CRE luciferase) EC50 (0% HSA)) [nM]
CC[C@H](C)[C@H](NC(=O)[C@H](Cc1ccccc1)NC(=O)[C@H](CCC(=O)O)NC(=O)[C@H](CCCCNC(=O)[C@@H](N)CCCCNC(=O)COCCOCCNC(=O)CC[C@H](NC(=O)CC[C@H](NC(=O)CCCCCCCCCCCOc1ccc(C(=O)O)cc1)C(=O)O)C(=O)O)NC(=O)[C@H](C)NC(=O)[C@H](C)NC(=O)[C@H](CCC(N)=O)NC(=O)CNC(=O)[C@H](CCC(=O)O)NC(=O)[C@H](CC(C)C)NC(=O)[C@H](Cc1ccc(O)cc1)NC(=O)[C@H](CO)NC(=O)[C@H](CO)NC(=O)[C@@H](NC(=O)[C@H](CC(=O)O)NC(=O)[C@H](CO)NC(=O)[C@@H](NC(=O)[C@H](Cc1ccccc1)NC(=O)[C@@H](NC(=O)CNC(=O)[C@H](CCC(=O)O)NC(=O)C(C)(C)NC(=O)[C@@H](N)Cc1c[nH]cn1)[C@@H](C)O)[C@@H](C)O)C(C)C)C(=O)N[C@@H](C)C(=O)N[C@@H](Cc1c[nH]c2ccccc12)C(=O)N[C@@H](CC(C)C)C(=O)N[C@H](C(=O)N[C@@H](CCCNC(=N)N)C(=O)NCC(=O)N[C@@H](CCCNC(=N)N)C(=O)N[C@@H](CCCCNC(=O)[C@@H](N)CCCCNC(=O)COCCOCCNC(=O)CC[C@H](NC(=O)CC[C@H](NC(=O)CCCCCCCCCCCOc1ccc(C(=O)O)cc1)C(=O)O)C(=O)O)C(=O)O)C(C)C [Example 15, N^ε26-[(2S)-2-amino-6-[[2-[2-[2-[[(4S)-4-carboxy-4-[[(4S)-4-carboxy-4-[12-(4-carboxyphenoxy)dodecanoylamino]butanoyl]amino]butanoyl]amino]ethoxy]ethoxy]acetyl]amino]hexanoyl], N^ε37-[(2S)-2-amino-6-[[2-[2-[2-[[(4S)-4-carboxy-4-[[(4S)-4-carboxy-4-[12-(4-carboxyphenoxy)dodecanoylamino]butanoyl]amino]butanoyl]amino]ethoxy]ethoxy]acetyl]amino]hexanoyl]-[Aib^8,Arg^34,Lys^37]-GLP-1-(7-37)-peptide] | 20 | 0.0037 | 0.327 | 93 | 
CC[C@H](C)[C@H](NC(=O)[C@H](Cc1ccccc1)NC(=O)[C@H](CCC(=O)O)NC(=O)[C@H](CCCCNC(=O)[C@@H](N)CCCCNC(=O)COCCOCCNC(=O)COCCOCCNC(=O)CC[C@H](NC(=O)CCCCCCCCCCCCCCCCC(=O)O)C(=O)O)NC(=O)[C@H](C)NC(=O)[C@H](C)NC(=O)[C@H](CCC(N)=O)NC(=O)[C@H](CCC(=O)O)NC(=O)[C@H](CCC(=O)O)NC(=O)[C@H](CC(C)C)NC(=O)[C@H](Cc1ccc(O)cc1)NC(=O)[C@H](CO)NC(=O)[C@H](CO)NC(=O)[C@@H](NC(=O)[C@H](CC(=O)O)NC(=O)[C@H](CO)NC(=O)[C@@H](NC(=O)[C@H](Cc1ccccc1)NC(=O)[C@@H](NC(=O)CNC(=O)[C@H](CCC(=O)O)NC(=O)C(C)(C)NC(=O)[C@@H](N)Cc1c[nH]cn1)[C@@H](C)O)[C@@H](C)O)C(C)C)C(=O)N[C@@H](C)C(=O)N[C@@H](Cc1c[nH]c2ccccc12)C(=O)N[C@@H](CC(C)C)C(=O)N[C@H](C(=O)N[C@@H](CCC(N)=O)C(=O)NCC(=O)N[C@@H](CCCNC(=N)N)C(=O)N[C@@H](CCCCNC(=O)[C@@H](N)CCCCNC(=O)COCCOCCNC(=O)COCCOCCNC(=O)CC[C@H](NC(=O)CCCCCCCCCCCCCCCCC(=O)O)C(=O)O)C(=O)O)C(C)C [Example 28, N^ε26-[(2S)-2-amino-6-[[2-[2-[2-[[2-[2-[2-[[(4S)-4-carboxy-4-(17-carboxyheptadecanoylamino)butanoyl]amino]ethoxy]ethoxy]acetyl]amino]ethoxy]ethoxy]acetyl]amino]hexanoyl], N^ε37-[(2S)-2-amino-6-[[2-[2-[2-[[2-[2-[2-[[(4S)-4-carboxy-4-(17-carboxyheptadecanoylamino)butanoyl]amino]ethoxy]ethoxy]acetyl]amino]ethoxy]ethoxy]acetyl]amino]hexanoyl]-[Aib^8,Glu^22,Gln^34, Lys^37]-GLP-1-(7-37)-peptide] (H-H[Aib]EGTFTSDVSSYLEEQAAK([εLys-AEEA-AEEA-γGlu-C18 diacid])EFIAWLVQGRK([εLys-AEEA-AEEA-γGlu-C18 diacid])-OH; N-terminus and C-terminus assumed) |  |  | 5.73 | 329 | 0.017
CC[C@H](C)[C@H](NC(=O)[C@H](Cc1ccccc1)NC(=O)[C@H](CCC(=O)O)NC(=O)[C@H](CCCCNC(=O)[C@@H](N)CCCCNC(=O)[C@@H](N)CCCCNC(=O)CC[C@H](NC(=O)CCCCCCCCCCCCC(=O)O)C(=O)O)NC(=O)[C@H](C)NC(=O)[C@H](C)NC(=O)[C@H](CCC(N)=O)NC(=O)CNC(=O)[C@H](CCC(=O)O)NC(=O)[C@H](CC(C)C)NC(=O)[C@H](Cc1ccc(O)cc1)NC(=O)[C@H](CO)NC(=O)[C@H](CO)NC(=O)[C@@H](NC(=O)[C@H](CC(=O)O)NC(=O)[C@H](CO)NC(=O)[C@@H](NC(=O)[C@H](Cc1ccccc1)NC(=O)[C@@H](NC(=O)CNC(=O)[C@H](CCC(=O)O)NC(=O)C(C)(C)NC(=O)[C@@H](N)Cc1c[nH]cn1)[C@@H](C)O)[C@@H](C)O)C(C)C)C(=O)N[C@@H](C)C(=O)N[C@@H](Cc1c[nH]c2ccccc12)C(=O)N[C@@H](CC(C)C)C(=O)N[C@H](C(=O)N[C@@H](CCCNC(=N)N)C(=O)NCC(=O)N[C@@H](CCCNC(=N)N)C(=O)N[C@@H](CCCCNC(=O)[C@@H](N)CCCCNC(=O)[C@@H](N)CCCCNC(=O)CC[C@H](NC(=O)CCCCCCCCCCCCC(=O)O)C(=O)O)C(=O)O)C(C)C [Example 2, N^ε26-[(2S)-2-amino-6-[[(2S)-2-amino-6-[[(4S)-4-carboxy-4-(13-carboxytridecanoylamino)butanoyl]amino]hexanoyl]amino]hexanoyl], N^ε37-[(2S)-2-amino-6-[[(2S)-2-amino-6-[[(4S)-4-carboxy-4-(13-carboxytridecanoylamino)butanoyl]amino]hexanoyl]amino]hexanoyl]-[Aib^8,Arg^34,Lys^37]-GLP-1-(7-37)-peptide] |  |  | 0.059 |  | 
CC[C@H](C)[C@H](NC(=O)[C@H](Cc1ccccc1)NC(=O)[C@H](CCC(=O)O)NC(=O)[C@H](CCCCNC(=O)[C@@H](N)CCCCNC(=O)COCCOCCNC(=O)COCCOCCNC(=O)CC[C@H](NC(=O)CCCCCCCCCOc1ccc(C(=O)O)cc1)C(=O)O)NC(=O)[C@H](C)NC(=O)[C@H](C)NC(=O)[C@H](CCC(N)=O)NC(=O)CNC(=O)[C@H](CCC(=O)O)NC(=O)[C@H](CC(C)C)NC(=O)[C@H](Cc1ccc(O)cc1)NC(=O)[C@H](CO)NC(=O)[C@H](CO)NC(=O)[C@@H](NC(=O)[C@H](CC(=O)O)NC(=O)[C@H](CO)NC(=O)[C@@H](NC(=O)[C@H](Cc1ccccc1)NC(=O)[C@@H](NC(=O)CNC(=O)[C@H](CCC(=O)O)NC(=O)C(C)(C)NC(=O)[C@@H](N)Cc1c[nH]cn1)[C@@H](C)O)[C@@H](C)O)C(C)C)C(=O)N[C@@H](C)C(=O)N[C@@H](Cc1c[nH]c2ccccc12)C(=O)N[C@@H](CC(C)C)C(=O)N[C@H](C(=O)N[C@@H](CCCNC(=N)N)C(=O)NCC(=O)N[C@@H](CCCNC(=N)N)C(=O)N[C@@H](CCCCNC(=O)[C@@H](N)CCCCNC(=O)COCCOCCNC(=O)COCCOCCNC(=O)CC[C@H](NC(=O)CCCCCCCCCOc1ccc(C(=O)O)cc1)C(=O)O)C(=O)O)C(C)C [Example 5] |  | 0.0054 | 0.033 |  | 
